Measurements published in US20240342320A1, “POLYPEPTIDE TARGETING INTEGRIN ALPHA 6 AND USE THEREOF” (GUANGZHOU GENBIONOVA MEDICAL TECHNOLOGY CO., LTD., priority 2021, published 2024).
Read-outs that look alike come from different tables or passages of the source. Positions of bridges follow the written chain, without caps; N, C: chain ends. Non-standard residues stand in square brackets, D forms with d. Residues, ends and D or L forms follow the SMILES beside them. *: point of attachment. NOTA = O=C(O)CN1CCN(CC(=O)O)CCN(CC(=O)*)CC1; PEG4 = NCCOCCOCCOCCOCCC(=O)O

Legend:
integrin α6β4 [1] = biological target: T1, integrin α6β4 (Homo sapiens, UniProt P23229); experiment: Microscale thermophoresis (MST) affinity to integrin α6β4; format: binding; conditions: for Affinity relative to RWY: relative to CRWYDENAC (RWY) = 1.00
T1 sequence (P23229 24-1050 limits assumed): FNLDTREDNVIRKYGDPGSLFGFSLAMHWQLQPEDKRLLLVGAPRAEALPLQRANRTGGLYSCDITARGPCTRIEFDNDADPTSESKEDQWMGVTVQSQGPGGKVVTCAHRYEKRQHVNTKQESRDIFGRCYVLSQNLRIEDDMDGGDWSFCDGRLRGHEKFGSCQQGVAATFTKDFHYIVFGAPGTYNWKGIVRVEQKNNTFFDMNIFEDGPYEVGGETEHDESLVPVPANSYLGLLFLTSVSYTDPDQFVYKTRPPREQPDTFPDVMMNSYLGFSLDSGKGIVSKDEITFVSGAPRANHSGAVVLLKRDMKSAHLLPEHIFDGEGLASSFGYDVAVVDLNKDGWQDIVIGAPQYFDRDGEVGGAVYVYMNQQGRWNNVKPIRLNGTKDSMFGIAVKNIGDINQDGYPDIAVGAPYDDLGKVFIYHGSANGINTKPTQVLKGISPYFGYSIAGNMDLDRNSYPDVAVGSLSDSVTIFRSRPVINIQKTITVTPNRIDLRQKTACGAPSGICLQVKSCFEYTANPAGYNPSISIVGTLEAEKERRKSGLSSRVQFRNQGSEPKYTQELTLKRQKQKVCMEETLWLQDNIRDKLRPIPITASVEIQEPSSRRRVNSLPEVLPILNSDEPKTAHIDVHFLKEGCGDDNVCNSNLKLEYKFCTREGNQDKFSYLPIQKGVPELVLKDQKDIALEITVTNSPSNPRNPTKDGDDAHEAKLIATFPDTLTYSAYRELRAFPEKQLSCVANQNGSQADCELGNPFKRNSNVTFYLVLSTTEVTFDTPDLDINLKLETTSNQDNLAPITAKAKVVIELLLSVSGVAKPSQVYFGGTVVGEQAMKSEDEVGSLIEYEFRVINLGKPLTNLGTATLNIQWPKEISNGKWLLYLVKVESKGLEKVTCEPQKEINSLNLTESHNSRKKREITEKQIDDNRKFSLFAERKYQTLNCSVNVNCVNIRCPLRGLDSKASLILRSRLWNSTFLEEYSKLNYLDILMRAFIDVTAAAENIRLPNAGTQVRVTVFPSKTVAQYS
T1 sequence (P16144 28-710 partner limits assumed): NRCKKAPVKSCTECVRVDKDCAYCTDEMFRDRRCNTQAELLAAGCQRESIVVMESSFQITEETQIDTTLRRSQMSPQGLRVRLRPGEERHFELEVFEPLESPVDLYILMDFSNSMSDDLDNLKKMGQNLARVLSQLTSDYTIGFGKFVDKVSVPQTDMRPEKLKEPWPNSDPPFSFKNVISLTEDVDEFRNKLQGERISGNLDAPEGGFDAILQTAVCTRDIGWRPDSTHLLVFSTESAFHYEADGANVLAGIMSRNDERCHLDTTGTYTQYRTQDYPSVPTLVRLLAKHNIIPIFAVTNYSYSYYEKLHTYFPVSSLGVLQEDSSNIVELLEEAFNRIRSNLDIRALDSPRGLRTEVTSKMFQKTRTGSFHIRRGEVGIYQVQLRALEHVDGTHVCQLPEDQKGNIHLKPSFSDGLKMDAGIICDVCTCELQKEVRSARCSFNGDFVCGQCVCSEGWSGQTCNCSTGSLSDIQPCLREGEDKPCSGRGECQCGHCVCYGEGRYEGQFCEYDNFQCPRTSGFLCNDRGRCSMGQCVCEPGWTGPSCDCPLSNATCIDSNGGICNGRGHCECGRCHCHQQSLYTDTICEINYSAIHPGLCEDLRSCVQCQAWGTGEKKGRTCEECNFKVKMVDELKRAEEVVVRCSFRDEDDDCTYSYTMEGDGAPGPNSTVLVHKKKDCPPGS
Procedure: (§1) The affinity between these 18 polypeptides and integrin α6β4 was detected by microscale thermophoresis (MST) method as follows: • 1) Integrin α6β4 protein was dissolved to 800 nM, and polypeptide was dissolved to 100 μM. • 2) A RED-tris-NTA second-generation dye was diluted to 100 nM by using the MO series RED-tris-NTA protein labeling kit. • 3) 100 μl α6β4 protein was mixed with 50 μl dye and incubated at room temperature for 30 min, so that the α6β4 protein binds to the dye. • 4) 10 μl polypeptide was transferred into a PCR tube, and was diluted with PBST (containing 0.05% Tween 20) at a ratio of 1:1 to 16 gradients of concentrations. • 5) 3 μl protein/dye mixture was transferred into a PCR tube, 3 μl of 16 different concentrations of polypeptides was respectively added and mixed well. • 6) The mixture was absorbed by capillary and loaded on machine (instrument model Monolith NT.115) to assay, parameters were set as 80% LED/excitation power and medium MST power. • 7) MO. Affinity Analysis software was used to calculate the equilibrium dissociation constant KD between α6β4 protein and polypeptide by KD fitting mode.

integrin α6β4 [2] = biological target: T2, integrin α6β4 (Homo sapiens, UniProt P16144+P23229); experiment: as above; format: binding; conditions: MST
T2 sequence (P23229 24-1050 limits assumed): T1 sequence (P23229 24-1050 limits assumed)
T2 sequence (P16144 28-710 partner limits assumed): T1 sequence (P16144 28-710 partner limits assumed)
Procedure: as §1

[3] = integrin α6β4, determination 1, read-out: KD (um) 1
[4] = integrin α6β4, determination 2, read-out: KD (um) 2
[5] = integrin α6β4, determination 3, read-out: KD (um) 3
[6] = integrin α6β4, mean of 3, read-out: KD Mean value (μm)

Structure (SMILES) | Affinity relative to RWY (integrin α6β4 [1]) | Kd (integrin α6β4 [2]; [3]) | Kd (integrin α6β4 [2]; [4]) | Kd (integrin α6β4 [2]; [5]) | Kd (integrin α6β4 [2]; integrin α6β4, read-out: KD) | Kd (integrin α6β4 [2]; [6]) | Kd (integrin α6β4 [1]; MST, integrin α6β4)
C[C@@H]1NC(=O)[C@H](CC(N)=O)NC(=O)[C@H](CCC(=O)O)NC(=O)[C@H](CC(=O)O)NC(=O)[C@H](Cc2ccc(O)cc2)NC(=O)[C@H](Cc2c[nH]c3ccccc23)NC(=O)[C@H](CCCNC(=N)N)NC(=O)[C@@H](N)CSSC[C@@H](C(=O)O)NC1=O [P1, CRWYDENAC] (H-CRWYDENAC-OH; disulfide 1-9; N-terminus and C-terminus assumed) | 1.00 | 8.59 µM | 6.52 µM | 5.81 µM | 6.97 ± 1.44 µM |  | 
C[C@@H]1NC(=O)[C@H](CC(N)=O)NC(=O)[C@H](CCC(=O)O)NC(=O)[C@H](CC(=O)O)NC(=O)[C@H](Cc2ccc(O)cc2)NC(=O)[C@H](C)NC(=O)[C@H](CCCNC(=N)N)NC(=O)[C@@H](N)CSSC[C@@H](C(=O)O)NC1=O [P3, CRAYDENAC] (H-CRAYDENAC-OH; disulfide 1-9; N-terminus and C-terminus assumed) | 0.52 | 14.4 µM | 11.8 µM | 13.8 µM |  | 13.3 µM | 
C[C@H](NC(=O)[C@H](CC(=O)O)NC(=O)[C@H](Cc1ccc(O)cc1)NC(=O)[C@H](Cc1c[nH]c2ccccc12)NC(=O)[C@@H](N)CCCNC(=N)N)C(=O)N[C@@H](CC(N)=O)C(=O)O [P11, RWYDAN] (H-RWYDAN-OH; N-terminus and C-terminus assumed) | 0.22 | 34.6 µM | 23.2 µM | 35.7 µM |  | 31.2 µM | 
C[C@H](NC(=O)[C@H](CCC(=O)O)NC(=O)[C@H](CC(=O)O)NC(=O)[C@H](Cc1ccc(O)cc1)NC(=O)[C@H](Cc1c[nH]c2ccccc12)NC(=O)[C@@H](N)CCCNC(=N)N)C(=O)O [P12, RWYDEA] (H-RWYDEA-OH; N-terminus and C-terminus assumed) | 2.20 | 5.26 µM | 2.49 µM | 1.74 µM |  | 3.16 µM | 
C[C@@H]1NC(=O)[C@H](CC(N)=O)NC(=O)[C@H](CCC(=O)O)NC(=O)[C@H](C)NC(=O)[C@H](Cc2ccc(O)cc2)NC(=O)[C@H](Cc2c[nH]c3ccccc23)NC(=O)[C@H](CCCNC(=N)N)NC(=O)[C@@H](N)CSSC[C@@H](C(=O)O)NC1=O [P5, CRWYAENAC] (H-CRWYAENAC-OH; disulfide 1-9; N-terminus and C-terminus assumed) | 17.01 | 0.36 µM | 0.22 µM | 0.65 µM |  | 0.41 µM | 
C[C@H](NC(=O)[C@H](Cc1ccc(O)cc1)NC(=O)[C@H](Cc1c[nH]c2ccccc12)NC(=O)[C@@H](N)CCCNC(=N)N)C(=O)N[C@@H](CCC(=O)O)C(=O)N[C@@H](CC(N)=O)C(=O)O [P16, RWYAEN] (H-RWYAEN-OH; N-terminus and C-terminus assumed) | 0.90 | 7.31 µM | 6.08 µM | 9.74 µM |  | 7.71 µM | 
C[C@H](NC(=O)[C@H](CC(N)=O)NC(=O)[C@H](C)NC(=O)[C@H](CC(=O)O)NC(=O)[C@H](Cc1ccc(O)cc1)NC(=O)[C@H](Cc1c[nH]c2ccccc12)NC(=O)[C@@H](N)CCCNC(=N)N)C(=O)O [P10, RWYDANA] (H-RWYDANA-OH; N-terminus and C-terminus assumed) | 0.23 | 62.1 µM | 17.5 µM | 12.4 µM |  | 30.6 µM | 
C[C@H](NC(=O)[C@H](CC(=O)O)NC(=O)[C@H](Cc1ccc(O)cc1)NC(=O)[C@H](Cc1c[nH]c2ccccc12)NC(=O)[C@@H](N)CCCNC(=N)N)C(=O)O [P14, RWYDA] (H-RWYDA-OH; N-terminus and C-terminus assumed) | 1.38 | 6.28 µM | 4.69 µM | 4.22 µM |  | 5.06 µM | 
C[C@@H]1NC(=O)[C@H](CC(N)=O)NC(=O)[C@H](C)NC(=O)[C@H](CC(=O)O)NC(=O)[C@H](Cc2ccc(O)cc2)NC(=O)[C@H](Cc2c[nH]c3ccccc23)NC(=O)[C@H](CCCNC(=N)N)NC(=O)[C@@H](N)CSSC[C@@H](C(=O)O)NC1=O [P6, CRWYDANAC] (H-CRWYDANAC-OH; disulfide 1-9; N-terminus and C-terminus assumed) | 1.61 | 1.21 µM | 7.99 µM | 3.83 µM |  | 4.34 µM | 
N=C(N)NCCC[C@H](N)C(=O)N[C@@H](Cc1c[nH]c2ccccc12)C(=O)N[C@@H](Cc1ccc(O)cc1)C(=O)N[C@@H](CC(=O)O)C(=O)NCCOCCOCCOCCOCCC(=O)N[C@@H](CCCCNC(=O)CN1CCN(CC(=O)O)CCN(CC(=O)O)CC1)C(=O)O [RWYD-PEG4-K-NOTA] (H-RWYD[PEG4]K(NOTA)-OH) |  |  |  |  |  |  | 642 ± 261 nM
N=C(N)NCCC[C@H](N)C(=O)N[C@@H](Cc1c[nH]c2ccccc12)C(=O)N[C@@H](Cc1ccc(O)cc1)C(=O)N[C@@H](CC(=O)O)C(=O)N[C@@H](CCC(=O)O)C(=O)N[C@@H](CC(N)=O)C(=O)O [P9, RWYDEN] (H-RWYDEN-OH; N-terminus and C-terminus assumed) | 0.66 | 9.69 µM | 8.73 µM | 13.1 µM |  | 10.5 µM | 
C[C@@H]1NC(=O)[C@H](C)NC(=O)[C@H](CCC(=O)O)NC(=O)[C@H](CC(=O)O)NC(=O)[C@H](Cc2ccc(O)cc2)NC(=O)[C@H](Cc2c[nH]c3ccccc23)NC(=O)[C@H](CCCNC(=N)N)NC(=O)[C@@H](N)CSSC[C@@H](C(=O)O)NC1=O [P7, CRWYDEAAC] (H-CRWYDEAAC-OH; disulfide 1-9; N-terminus and C-terminus assumed) | 11.19 | 0.25 µM | 0.25 µM | 1.37 µM |  | 0.62 µM | 
C[C@@H]1NC(=O)[C@H](CC(N)=O)NC(=O)[C@H](CCC(=O)O)NC(=O)[C@H](CC(=O)O)NC(=O)[C@H](Cc2ccc(O)cc2)NC(=O)[C@H](Cc2c[nH]c3ccccc23)NC(=O)[C@H](C)NC(=O)[C@@H](N)CSSC[C@@H](C(=O)O)NC1=O [P2, CAWYDENAC] (H-CAWYDENAC-OH; disulfide 1-9; N-terminus and C-terminus assumed) | 1.06 | 4.03 µM | 12.1 µM | 3.58 µM |  | 6.58 µM | 
N=C(N)NCCC[C@H](N)C(=O)N[C@@H](Cc1c[nH]c2ccccc12)C(=O)N[C@@H](Cc1ccc(O)cc1)C(=O)N[C@@H](CC(=O)O)C(=O)N[C@@H](CCC(=O)O)C(=O)O [P13, RWYDE] (H-RWYDE-OH; N-terminus and C-terminus assumed) | 0.11 | 14.7 µM | 78.8 µM | 99.6 µM |  | 64.4 µM | 
